Experimental data from publication PMC11526092 (2024).

Test system: h1_(TTAA)2 (DNA, hairpin) CGTTAATTAACGCCCCCGTTAATTAACG
Assay: SPR, steady state, two-site fit
Settings: Na+ 100 mM (NaCl), 1 mM EDTA; 10 mM MES pH 6.25, 0.005% P20, 25 °C; site 1 of 2; error about ±10%

N=C(N)c1ccc(OCCCCCOc2ccc(C(=N)N)cc2)cc1
K1: 680 nM
